Test results reported in patent US6884589B2, “Model for myeloid cell growth, differentiation and disease” (Regents of the University of California, priority 2000, dated 2005).

Experiments:
Type in all cases: cell-based, murine
Settings in all cases: 10 μM atRA for 4 days
parental ECoM-G cells = assay: atRA treatment of parental ECoM-G cells
[1] = test system: PML/RARα ECoM-G derivatives; assay: atRA treatment of ECoM-G clones arrested in differentiation by PML/RARα
Protocol: (§1) Retroviral infection of ECoM-G cells with heterologous oncoproteins. Helper-free retrovirus was generated for wild-type E2a-Pbx1, Hoxa7, Hoxa9, Nup98/HoxA9, Hoxb8, AML1/ETO, PML/RARα and PLZF/RARα constructs cloned into the multiple cloning site of the MSCVneo and MSCVpac retroviral vectors. ECoM-G cells (250,000) from 3 different clones were transduced by spinoculation (as described above) and selected 5 days in G418 (1 mg/ml) or puromycin (1 μg/ml). The cells were washed and plated in media without estrogen. Only those cells that were capable of continued and indefinite proliferation in the absence of estrogen were expanded to generate RNA for Northern analysis.
Analysis of differentiation arrest induced by heterologous oncoproteins in E2a-Pbx1-ER expressing cells. The ECoM cells provide a system in which to dissect the mechanisms of action of oncogenes. Heterologous oncoproteins were introduced into ECoM-G clones by retroviral infection. Expression was verified by immunoblot assay and cells were assayed for the ability to re-establish differentiation arrest following estrogen withdrawal. AML1/ETO, PML/RARα, Hoxa9, Hoxb8 and wild type E2a-Pbx1 prevented granulocytic differentiation of specific clones permitting their continued and indefinite proliferation in the presence of GM-CSF. […]

[2] = test system: PLZF/RARα ECoM-G derivatives; assay: atRA treatment of ECoM-G clones arrested in differentiation by PLZF/RARα
Protocol: as §1
Analysis of differentiation arrest induced by heterologous oncoproteins in E2a-Pbx1-ER expressing cells. The ECoM cells provide a system in which to dissect the mechanisms of action of oncogenes. Heterologous oncoproteins were introduced into ECoM-G clones by retroviral infection.

With `CC1=C(/C=C/C(C)=C/C=C/C(C)=C/C(=O)O)C(C)(C)CCC1` [atRA, all-trans-RA] the “response to atRA” value (parental ECoM-G cells) was “completely unresponsive”, the “response to atRA (proliferation, differentiation)” value [1] was “stopped proliferating and underwent quantitative granulocytic differentiation” and the “response to atRA (proliferation, differentiation)” value [2] was “stopped proliferating and underwent quantitative granulocytic differentiation”.
